Results taken from patent US6838450B2, “Drug complex” (Daiichi Pharmaceutical Co., LTD, priority 1996, dated 2005).
Counter-ions that a name gives are not always drawn. Peptide text beside a SMILES is read from it.

What was measured:
[1] = system: mouse fibrosarcoma Meth A cells; experiment: Antitumor activity, Meth A tumor-bearing mice, injection every 4 days 4 times; details: for antitumor activity (in words): compared to the drug compound, per se; for Inhibition rate (%): tail vein every 4 days from day 7, tumor weight day 21
Protocol: Meth A tumor-bearing mice were prepared (7 mice per group) by subcutaneously transplanting 1×10^6 mouse fibrosarcoma Meth A cells into the right inguinal regions of BALB/c male mice (7-week old). On day 7, the drug complex of Example 9 dissolved in distilled water for injection was injected in the tail vein of the Meth A tumor-bearing mice every 4 days 4 times. On day 21 after the transplantation, tumor masses were excised and weighed to calculate the inhibition rate of tumor growth according to the following equation: inhibition rate of tumor growth (%)=[1−(average tumor weight of the group administered with the test sample/average tumor weight of control group)]×100.

[2] = system: mouse fibrosarcoma Meth A cells; experiment: Antitumor activity, Meth A tumor-bearing mice, single administration; type: in vivo; details: for Inhibition rate (%): Table 3; for antitumor activity (in words) / effective dose-range: single administration, compared to the drug compound, per se
Protocol: Meth A tumor-bearing mice (6 mice per group) were prepared according to a similar manner to that of Example 11 and the antitumor activity was compared to that obtained by single administration of the drug complexes of Examples 8 and 9 once on day 7. As a result, the degree of the antitumor activity was as follows: (Polysaccharide derivative)-Gly-Gly-Phe-Gly-NH—A′>(Polysaccharide derivative)-Gly-Gly-Gly-Phe-NH—A′>the drug compound, per se.
Meth A tumor-bearing mice (6 mice per group) were prepared according to a similar manner to that of Example 11, and the antitumor activity of the drug complex of Example 41 was examined in the cases of single administration in a similar manner to that of Example 12, and its antitumor activity was compared to that of the drug compound, per se. […]

[3] = system: mouse fibrosarcoma Meth A cells; experiment: as above; type: in vivo
SC-6 human gastric tumor = experiment: Antitumor activity, SC-6 tumor-bearing nude mice; type: in vivo, mouse; details: for Inhibition rate (%) / Numbers of died mice/mice used: single intravenous administration on day 27, nude mice
Protocol: (§1) SC-6 tumor-bearing nude mice (5 mice per group) were prepared by subcutaneously transplanting a piece of SC-6 human gastric tumor block into the right inguinal regions of nude mice (BALB/c-nu/nu, male).

Human lung cancer QG-90 = experiment: Antitumor activity, human lung cancer QG-90-bearing nude mice; type: in vivo, mouse; details: for Inhibition rate (%) / Numbers of died mice/mice used: single intravenous administration on day 16, nude mice
Protocol: as §1
Human lung cancer QG-90-bearing nude mice (5 mice per group) were prepared according to a similar manner to that of Example 57.

[4] = Pharmacokinetics in Meth A tumor-bearing mice; type: in vivo, mouse; details: single administration, 10 mg/kg calculated as the drug compound; FIG. 24
[5] = 5 mg/kg calculated based on the drug compound, single administration on day 7
[6] = Example 60, 20 mg/kg calculated based on the drug compound, single administration, 20 mg/kg
[7] = Example 60, 40 mg/kg calculated based on the drug compound, single administration
[8] = Example 60, 80 mg/kg calculated based on the drug compound, single administration
[9] = Example 60, 100 mg/kg calculated based on the drug compound, single administration
[10] = 2 mg/kg calculated based on the drug compound
[11] = 8 mg/kg calculated based on the drug compound
[12] = single intravenous administration, compared to the drug compound, per se
[13] = 1.75 mg/kg calculated based on the drug compound
[14] = 7 mg/kg calculated based on the drug compound

CC[C@@]1(O)C(=O)OCc2c1cc1n(c2=O)Cc2c-1nc1cc(F)c(C)c3c1c2[C@@H](NC(=O)CNC(=O)[C@H](Cc1ccccc1)NC(=O)CNC(=O)CN)CC3 [3′-N-(Gly-Gly-Phe-Gly)-NH—A (A—NH2=DX-8951) trifluoroacetic acid salt] (HELM PEPTIDE1{G.G.F.G.[CC[C@@]1(O)C(=O)OCc2c1cc1n(c2=O)Cc2c-1nc1cc(F)c(C)c3c1c2[C@@H](N[*:1])CC3]}$$$$V2.0)
antitumor activity (in words) ([1]; every 4 days 4 times): not effective

CC[C@@]1(O)C(=O)OCc2c1cc1n(c2=O)Cc2c-1nc1cc(F)c(C)c3c1c2[C@@H](N)CC3 [DX-8951, (1S,9S)-1-amino-9-ethyl-5-fluoro-2,3-dihydro-9-hydroxy-4-methyl-1H,12H-benzo[de]pyrano[3′,4′:6,7]indolizino[1,2-b]quinoline-10,13(9H,15H)-dione, reference compound]
Inhibition rate (%) ([2]; 20 mg/kg single administration on day 7, drug compound = DX-8951): 59%
Inhibition rate (%) ([2]; 60 mg/kg single administration on day 7, drug compound = DX-8951): 77%

carboxymethyldextran polyalcohol-Gly-Gly-Gly-Phe-NH—A′ (A—NH2=DX-8951) [Example 8]
Inhibition rate (%) [2, 5]: 76%
Inhibition rate (%) ([2]; 10 mg/kg calculated based on the drug compound, single administration on day 7): 85%

carboxymethyldextran polyalcohol-Gly-Gly-Gly-Phe-NH—A′ (A—NH2=DX-8951) [Example 29]
Inhibition rate (%) ([3]; Example 60, 5 mg/kg calculated based on the drug compound, single administration): 79%
Inhibition rate (%) ([3]; Example 60, 10 mg/kg calculated based on the drug compound, single administration): 89%
Inhibition rate (%) [3, 6]: 99%
Inhibition rate (%) ([3]; Example 60, 30 mg/kg calculated based on the drug compound, single administration): 99%
antitumor activity (in words) [2]: high
effective dose-range [2]: broader

carboxymethyldextran polyalcohol-Gly-Gly-Gly-Phe-NH—A′ (A—NH2=DX-8951) [Example 46]
Inhibition rate (%) [3, 6]: 75%
Inhibition rate (%) [3, 7]: 82%
Inhibition rate (%) [3, 8]: 92%
Inhibition rate (%) [3, 9]: 94%
antitumor activity (in words) [2]: high
effective dose-range [2]: broader

carboxymethyldextran polyalcohol-Gly-Gly-Phe-Gly-DXR [Example 44]
Inhibition rate (%) ([3]; Example 61, 5 mg/kg calculated based on the drug compound, single administration): 76%
Inhibition rate (%) ([3]; Example 61, 10 mg/kg calculated based on the drug compound, single administration): 87%
Inhibition rate (%) ([3]; Example 61, 20 mg/kg calculated based on the drug compound, single administration): 96%
Inhibition rate (%) ([3]; Example 61, 40 mg/kg calculated based on the drug compound, single administration): 96%
antitumor activity (in words) [2]: remarkably enhanced
effective dose-range [2]: broader

carboxymethyldextran polyalcohol-Gly-Gly-Phe-Gly-NH—A′ (A—NH2=DW-8089) [Example 41]
Inhibition rate (%) ([3]; Example 59, 3.125 mg/kg calculated based on the drug compound, single administration): 61%
Inhibition rate (%) ([3]; Example 59, 6.25 mg/kg calculated based on the drug compound, single administration): 81%
Inhibition rate (%) ([3]; Example 59, 12.5 mg/kg calculated based on the drug compound, single administration): 95%
Inhibition rate (%) ([3]; Example 59, 25 mg/kg calculated based on the drug compound, single administration): 99%
antitumor activity (in words) [2]: remarkably enhanced
effective dose-range [2]: broader

carboxymethyldextran polyalcohol-Gly-Gly-Phe-Gly-NH—A′ (A—NH2=DX-8951) [Example 9]
Inhibition rate (%) ([3]; Table 3, 2.5 mg/kg calculated based on the drug compound, single administration on day 7): 87%
Inhibition rate (%) [2, 5]: 98%
Inhibition rate (%) ([1]; dose 0.35 mg/kg × 4 calculated based on the drug compound): 41%
Inhibition rate (%) ([1]; dose 0.7 mg/kg × 4 calculated based on the drug compound): 59%
Inhibition rate (%) ([1]; dose 1.4 mg/kg × 4 calculated based on the drug compound): 94%
toxicity (weight loss) ([1]; every 4 days 4 times): no toxicity
antitumor activity (in words) ([1]; every 4 days 4 times): remarkably enhanced

carboxymethyldextran polyalcohol-Gly-Gly-Phe-Gly-NH—A′ (A—NH2=DX-8951) [Example 15]
Inhibition rate (%) (SC-6 human gastric tumor; [10]): 71%
Numbers of died mice/mice used (SC-6 human gastric tumor; [10]): 0/5
Inhibition rate (%) (SC-6 human gastric tumor; [11]): 100%
Numbers of died mice/mice used (SC-6 human gastric tumor; [11]): 0/5
death due to toxicity (SC-6 human gastric tumor; single intravenous administration): no death
antitumor activity (in words) (SC-6 human gastric tumor; [12]): higher
Inhibition rate (%) (Human lung cancer QG-90; [13]): 97%
Numbers of died mice/mice used (Human lung cancer QG-90; [13]): 0/5
Inhibition rate (%) (Human lung cancer QG-90; [14]): 98%
Numbers of died mice/mice used (Human lung cancer QG-90; [14]): 0/5
antitumor activity (in words) (Human lung cancer QG-90; [12]): remarkably enhanced
effective dose-range (Human lung cancer QG-90; [12]): broader
Inhibition rate (%) ([3]; Example 56, 1.25 mg/kg calculated based on the drug compound, single administration): 83%
Inhibition rate (%) ([3]; Example 56, 2.5 mg/kg calculated based on the drug compound, single administration): 95%
Inhibition rate (%) ([3]; Example 56, 5 mg/kg calculated based on the drug compound, single administration): 99%
Inhibition rate (%) ([3]; Example 56, 10 mg/kg calculated based on the drug compound, single administration): 100%
antitumor activity (in words) [2]: remarkably enhanced
effective dose-range [2]: broader
distribution in tumor tissues [4]: high
retention of blood level [4]: extremely long

α-methylcarboxymethyldextran polyalcohol-Gly-Gly-Gly-Phe-NH—A′ (A—NH2=DX-8951) [Example 47]
Inhibition rate (%) ([3]; Example 60, 20 mg/kg calculated based on the drug compound, single administration): 75%
Inhibition rate (%) [3, 7]: 97%
Inhibition rate (%) [3, 8]: 94%
Inhibition rate (%) [3, 9]: 96%
antitumor activity (in words) [2]: high
effective dose-range [2]: broader
